From US20230265151A1, “GIP/GLP1 CO-AGONIST COMPOUNDS” (priority 2020, published 2023) come the findings set out here.

Each structure is given as a SMILES string. Read-outs that look alike come from different tables or passages of the source.

The target in assay [1] is T1, human Gcg receptor (hGcgR) (Homo sapiens, UniProt P47871).
T1 construct: expressed in transfected cells; crude membranes
The assay is described as follows: [125I]-Glucagon binding, SPA with membranes of HEK293 cells expressing hGcgR. The note with it: human GcgR; geometric mean (SEM, n); read-out: Binding Affinity Ki, nM (SEM, n) hGCGR. As to the method:
Two methods are used for the preparation of crude cell membranes.
Method 1: Frozen cell pellets are lysed on ice in hypotonic buffer containing 50 mM Tris HCl, pH 7.5, and Roche Complete™ Protease Inhibitors with EDTA. […] The homogenate is centrifuged at 4° C. at 1100 × g for 10 minutes. The supernatant is collected and stored on ice while the pellets are resuspended in homogenization buffer and rehomogenized as described above. The homogenate is centrifuged at 1100 × g for 10 minutes. The second supernatant is combined with the first supernatant and centrifuged at 35000 × g for 1 hour at 4° C. The resulting membrane pellet is resuspended in homogenization buffer containing protease inhibitors at approximately 1 to 3 mg/mL, quick frozen in liquid nitrogen and stored as aliquots in a -80° C. freezer until use.
The homogenate is centrifuged at 4° C. at 1800 × g for 15 minutes. The supernatant is collected and stored on ice while the pellets are resuspended in homogenization buffer (without DNAse I) and rehomogenized as described above. The homogenate is centrifuged at 1800 × g for 15 minutes. The second supernatant is combined with the first supernatant and centrifuged an additional time at 1800 × g for 15 minutes. The overall supernatant is then centrifuged at 25000 × g for 30 minutes at 4° C. The resulting membrane pellet is resuspended in homogenization buffer (without DNAse I) containing protease inhibitors at approximately 1 to 3 mg/mL and stored as aliquots in a -80° C. freezer until use.
The human Gcg receptor binding assays are performed using a Scintillation Proximity Assay (SPA) format with wheat germ agglutinin (WGA) beads (Perkin Elmer). The binding buffer contains 25 mM 4-(2-hydroxyethyl)-1-piperazineethanesulfonic acid (HEPES), pH 7.4, 2.5 mM CaCl2, 1 mM MgCh, 0.1% (w/v) bacitracin (Research Products), 0.003% (w/v) Polyoxyethylenesorbitan monolaurate (TWEEN®-20), and Roche Complete™ Protease Inhibitors without EDTA. […] Next, 5 µL serially diluted compound or DMSO is transferred into Corning® 3632 clear bottom assay plates containing 45 µL assay binding buffer or unlabeled Gcg control (non-specific binding or NSB, at 1 µM final). […] Plates are sealed and mixed on a plate shaker (setting 6) for 1 minute and read with a PerkinElmer Trilux MicroBeta® scintillation counter after 12 hours of incubation/settling time at room temperature.
Raw CPM data for concentration curves of peptides, Gcg, GLP-1, or GIP are converted to percent inhibition by subtracting nonspecific binding (binding in the presence of excess unlabeled Gcg, GLP-1, or GIP, respectively) from the individual CPM values and dividing by the total binding signal, also corrected by subtracting nonspecific binding. Data are analyzed using four-parameter (curve maximum, curve minimum, IC50, Hill slope) nonlinear regression routines (Genedata Screener, version 12.0.4, Genedata AG, Basal, Switzerland). […] Values for Ki are reported as the geometric mean, with error expressed as the standard error of the mean (SEM) and n is equal to the number of independent replicates (determined in assays performed on different days). Geometric Means are calculated as follows: […]
The Ki Ratio (Ki for native control peptide/Ki for test compound) at each receptor and each species is calculated. The Ki Ratio is a rapid indication of the apparent affinity of a peptide compared to the native control peptide.
n=⅟x means that only one value out of the total number of replicates (x) is used to express the mean. SEM is only calculated when n=2 or greater non-qualified results exist. Means are expressed as GeoMetric means with the standard error of the mean (SEM) and the number of replicates (n) indicated in parenthesis.

The target in assay [2] is T2, hGIPR (Homo sapiens, UniProt P48546).
T2 construct: expressed in transfected cells
T2 sequence (P48546 22-466): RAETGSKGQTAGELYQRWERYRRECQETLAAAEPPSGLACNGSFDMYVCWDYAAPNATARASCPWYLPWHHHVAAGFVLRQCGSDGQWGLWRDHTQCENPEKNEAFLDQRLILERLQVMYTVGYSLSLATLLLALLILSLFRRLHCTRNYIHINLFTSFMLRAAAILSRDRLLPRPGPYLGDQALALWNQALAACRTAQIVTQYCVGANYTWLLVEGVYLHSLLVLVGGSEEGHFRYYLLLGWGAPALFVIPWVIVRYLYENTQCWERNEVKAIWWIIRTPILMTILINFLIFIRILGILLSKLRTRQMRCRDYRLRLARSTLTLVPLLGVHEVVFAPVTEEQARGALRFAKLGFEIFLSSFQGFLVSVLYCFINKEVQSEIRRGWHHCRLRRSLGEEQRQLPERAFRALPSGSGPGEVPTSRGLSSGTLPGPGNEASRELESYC
The assay is described as follows: Functional cAMP formation (HTRF) in HEK-293 clonal cells expressing hGIPR, 0.1% bovine casein, without or with 1.0% human serum albumin. It counts as cell-based. The note with it: for EC50: geometric mean, read-out: hGIPR EC50, nM (SEM, n); for Emax: read-out: hGIPR Emax, % ± SEM. The method in brief:
(§1)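 Cells were stimulated with peptide for 30 min at 37° C, then lysed in buffer carrying cAMP-d2 and anti-cAMP Eu3+-cryptate for a competitive HTRF read after at least 60 min at room temperature. The 665/620 nm ratio was converted to nM cAMP against a standard curve.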
(In general: Cyclic AMP is a second messenger, typically raised through Gs and lowered through Gi signalling.)

The target of assay [3] is T3, hGCGR (Homo sapiens, UniProt P47871).
T3 construct: expressed in transfected cells
T3 sequence (P47871 26-477): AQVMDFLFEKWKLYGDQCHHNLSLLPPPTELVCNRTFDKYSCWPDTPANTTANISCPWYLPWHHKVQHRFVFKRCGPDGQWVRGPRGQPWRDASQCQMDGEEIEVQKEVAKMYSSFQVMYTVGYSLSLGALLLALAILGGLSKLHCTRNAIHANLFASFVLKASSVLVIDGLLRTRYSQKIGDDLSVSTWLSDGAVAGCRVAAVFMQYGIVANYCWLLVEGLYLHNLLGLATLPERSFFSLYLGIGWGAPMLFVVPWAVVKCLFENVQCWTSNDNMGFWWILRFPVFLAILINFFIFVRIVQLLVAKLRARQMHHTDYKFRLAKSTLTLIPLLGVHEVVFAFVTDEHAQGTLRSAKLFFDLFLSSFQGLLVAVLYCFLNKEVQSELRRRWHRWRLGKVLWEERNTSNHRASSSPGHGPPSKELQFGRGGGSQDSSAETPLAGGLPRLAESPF
The assay is described as follows: Functional cAMP formation (HTRF) in HEK-293 clonal cells expressing hGCGR, 0.1% bovine casein, without or with 1.0% human serum albumin. It counts as cell-based. The conditions noted are these: geometric mean, read-out: hGCGR EC50, nM (SEM, n). The method in brief:
as §1

In assay [4] the target is hGLP-1R (Homo sapiens, UniProt P43220). The assay can be described thus: Functional cAMP formation (HTRF) in HEK-293 clonal cells expressing hGLP-1R, 0.1% bovine casein, without or with 1.0% human serum albumin. It is filed as cell-based. On the set-up: expressed in transfected cells. The note with it: for EC50: geometric mean, read-out: hGLP-1R EC50, nM (SEM, n); for Emax: read-out: hGLP-1R Emax, % ± SEM. The gist of the method:
as §1

Where [5] appears, read: 0.1% bovine casein and 1.0% human serum albumin, 37° C.
[6] abbreviates: HEK293, 0.1% bovine casein and 1.0% human serum albumin, 37° C., percent of maximal response to GIP(1-42)NH2.
Setting [7] is: HEK293, percent of maximal response to GIP(1-42)NH2, 37° C., 0.1% bovine casein, arithmetic mean.
Setting [8] is: cAMP, incubated at 37° C., 0.1% bovine casein (no human serum albumin).

T1 sequence (P47871 26-477): as above
Sequence of hGLP-1R (P43220 24-463): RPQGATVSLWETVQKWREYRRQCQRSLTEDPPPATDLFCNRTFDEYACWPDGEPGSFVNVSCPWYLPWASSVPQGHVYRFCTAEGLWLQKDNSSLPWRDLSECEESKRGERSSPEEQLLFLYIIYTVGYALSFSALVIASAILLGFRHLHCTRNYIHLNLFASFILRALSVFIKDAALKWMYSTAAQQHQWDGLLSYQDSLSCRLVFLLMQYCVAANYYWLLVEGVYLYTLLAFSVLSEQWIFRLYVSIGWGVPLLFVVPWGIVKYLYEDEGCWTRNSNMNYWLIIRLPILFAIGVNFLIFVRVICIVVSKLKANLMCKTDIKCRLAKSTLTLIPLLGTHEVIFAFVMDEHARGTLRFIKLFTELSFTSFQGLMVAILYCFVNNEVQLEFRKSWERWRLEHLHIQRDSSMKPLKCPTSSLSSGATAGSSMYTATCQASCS

Broadly, the Ki is the equilibrium dissociation constant of an inhibitor or competing ligand from its target. As usually defined, the EC50 is the concentration giving half of the maximal effect. A word on the Emax: it is the size of the effect at its maximum, as opposed to the concentration needed. For the compound `CC[C@H](C)[C@H](NC(=O)[C@H](CC(C)C)NC(=O)[C@](C)(Cc1ccc(O)cc1)NC(=O)[C@@H](CCC(=O)O)NC(=O)[C@@H](NC(=O)[C@H](Cc1ccccc1)NC(=O)[C@H](CCC(=O)O)NC(=O)C(C)(C)NC(=O)[C@H](CCC(N)=O)NC(=O)[C@H](C)NC(=O)[C@H](CCCCNC(=O)COCCOCCNC(=O)COCCOCCNC(=O)[C@@H](N)CCCCNC(=O)CC[C@H](NC(=O)CCCCCCCCCCCCC(=O)O)C(=O)O)NC(=O)[C@H](CCCN)NC(=O)[C@H](CC(=O)O)NC(=O)[C@H](CC(C)C)NC(=O)[C@](C)(CC(C)C)NC(=O)[C@@H](NC(=O)[C@H](CO)NC(=O)[C@H](Cc1ccncc1)NC(=O)[C@H](CC(=O)O)NC(=O)[C@H](CO)NC(=O)[C@@H](NC(=O)[C@](C)(Cc1ccccc1F)NC(=O)[C@@H](NC(=O)CNC(=O)[C@H](CCC(=O)O)NC(=O)C(C)(C)NC(=O)[C@@H](N)Cc1ccc(O)cc1)[C@@H](C)O)[C@@H](C)O)[C@@H](C)CC)[C@@H](C)CC)C(=O)N[C@@H](CCC(=O)O)C(=O)NCC(=O)NCC(=O)N[C@@H](CCCCNC(=O)COCCOCCNC(=O)COCCOCCNC(=O)[C@@H](N)CCCCNC(=O)CC[C@H](NC(=O)CCCCCCCCCCCCC(=O)O)C(=O)O)C(=O)N[C@@H](CO)C(=O)N[C@@H](CO)C(=O)NCC(=O)N[C@@H](C)C(=O)N1CCC[C@H]1C(=O)N1CCC[C@H]1C(=O)N1CCC[C@H]1C(=O)N[C@@H](CO)C(N)=O` [Example 34], the Ki in assay [1] is > 957 nM. For the same compound, the concentration giving a half-maximal response (EC50) in assay [2] (setting [5]) is 0.213 nM; in assay [2] (setting [8]) it was 0.0148 nM; in assay [3] (setting [5]), > 9950 nM; in assay [3] (setting [8]), > 9950 nM; in assay [4] (setting [5]), 19.8 nM; in assay [4] (setting [8]), 1 nM. The Emax is 89.1 ± 2% in assay [2] (setting [6]) and 97.4 ± 2.34% in assay [2] (setting [7]).
As to `CC[C@H](C)[C@H](NC(=O)[C@H](CCCN)NC(=O)[C@H](CC(=O)O)NC(=O)[C@H](CC(C)C)NC(=O)[C@](C)(CC(C)C)NC(=O)[C@@H](NC(=O)[C@H](CO)NC(=O)[C@H](Cc1ccncc1)NC(=O)[C@H](CC(=O)O)NC(=O)[C@H](CO)NC(=O)[C@@H](NC(=O)[C@](C)(Cc1ccccc1F)NC(=O)[C@@H](NC(=O)CNC(=O)[C@H](CCC(=O)O)NC(=O)C(C)(C)NC(=O)[C@@H](N)Cc1ccc(O)cc1)[C@@H](C)O)[C@@H](C)O)[C@@H](C)CC)C(=O)N[C@@H](C)C(=O)N[C@@H](CCC(N)=O)C(=O)NC(C)(C)C(=O)N[C@@H](CCC(=O)O)C(=O)N[C@@H](Cc1ccccc1)C(=O)N[C@H](C(=O)N[C@@H](CCCCNC(=O)COCCOCCNC(=O)COCCOCCNC(=O)CC[C@H](NC(=O)CCCCCCCCCCCCC(=O)O)C(=O)O)C(=O)N[C@@](C)(Cc1ccc(O)cc1)C(=O)N[C@@H](CC(C)C)C(=O)N[C@H](C(=O)N[C@@H](CCCCNC(=O)COCCOCCNC(=O)COCCOCCNC(=O)CC[C@H](NC(=O)CCCCCCCCCCCCC(=O)O)C(=O)O)C(=O)NCC(=O)NCC(=O)N1CCC[C@H]1C(=O)N[C@@H](CO)C(=O)N[C@@H](CO)C(=O)NCC(=O)N[C@@H](C)C(=O)N1CCC[C@H]1C(=O)N1CCC[C@H]1C(=O)N1CCC[C@H]1C(=O)N[C@@H](CO)C(N)=O)[C@@H](C)CC)[C@@H](C)CC` [Example 70], the Ki in assay [1] turned out to be 151 nM. Moreover, the Emax came to 89.9 ± 0.987% in assay [2] (setting [6]); 89.1 ± 2.3% in assay [2] (setting [7]); 100 ± 3.11% in assay [4] (HEK293, percent of maximal response to GLP-1(7-36)NH2, 37° C., 0.1% bovine casein, arithmetic mean). The EC50 is 0.0182 nM in assay [2] (setting [8]), > 9950 nM in assay [3] (setting [5]), > 9950 nM in assay [3] (setting [8]) and 27 nM in assay [4] (setting [5]).
Regarding `CC[C@H](C)[C@H](NC(=O)[C@H](CC(C)C)NC(=O)[C@](C)(Cc1ccc(O)cc1)NC(=O)[C@@H](CCC(=O)O)NC(=O)[C@@H](NC(=O)[C@H](Cc1ccccc1)NC(=O)[C@H](CCC(=O)O)NC(=O)C(C)(C)NC(=O)[C@H](CCC(N)=O)NC(=O)[C@H](C)NC(=O)[C@H](CCCCNC(=O)COCCOCCNC(=O)COCCOCCNC(=O)CC[C@H](NC(=O)CCCCCCCCCCCCC(=O)O)C(=O)O)NC(=O)[C@H](CCCN)NC(=O)[C@H](CC(=O)O)NC(=O)[C@H](CC(C)C)NC(=O)[C@](C)(CC(C)C)NC(=O)[C@@H](NC(=O)[C@H](CO)NC(=O)[C@H](CCCCNC(=O)COCCOCCNC(=O)COCCOCCNC(=O)CC[C@H](NC(=O)CCCCCCCCCCCCC(=O)O)C(=O)O)NC(=O)[C@H](CC(=O)O)NC(=O)[C@H](CO)NC(=O)[C@@H](NC(=O)[C@](C)(Cc1ccccc1F)NC(=O)[C@@H](NC(=O)CNC(=O)[C@H](CCC(=O)O)NC(=O)C(C)(C)NC(=O)[C@@H](N)Cc1ccc(O)cc1)[C@@H](C)O)[C@@H](C)O)[C@@H](C)CC)[C@@H](C)CC)C(=O)N[C@@H](CCC(=O)O)C(=O)NCC(=O)NCC(=O)N1CCC[C@H]1C(=O)N[C@@H](CO)C(=O)N[C@@H](CO)C(=O)NCC(=O)N[C@@H](C)C(=O)N1CCC[C@H]1C(=O)N1CCC[C@H]1C(=O)N1CCC[C@H]1C(=O)N[C@@H](CO)C(N)=O` [Example 27], in assay [1], the Ki was > 958 nM. Also, the EC50 was 6.78 nM in assay [2] (setting [5]), > 9950 nM in assay [3] (setting [5]), > 9950 nM in assay [3] (setting [8]) and 70.2 nM in assay [4] (setting [5]). Also, the maximum response (Emax) amounted to 82.8 ± 1.14% in assay [2] (setting [6]); 88.8% in assay [2] (setting [7]); 110 ± 3.03% in assay [4] (HEK293, 0.1% bovine casein and 1.0% human serum albumin, 37° C., percent of maximal response to GLP-1(7-36)NH2).
